Experimental data reported in US11198741B2, “Medicines for topic use based on sulfated hyaluronic acid as activating or inhibiting agent of the cytokine activity” (Fidia Farmaceutici S.p.A., priority 2009, dated 2021).

Experiments:
[1] = type: in vitro ADME
Experimental: The skin used for effecting the experiments is obtained from the abdomen of patients between 30 and 50 years old, subjected to surgical abdominal reductions. The sections of skin with a complete thickness are frozen after the surgical intervention and preserved at −20° C. until the moment of the experiment, in which the samples are defrozen at room temperature and accurately separated from the adipose tissue. The skin is divided into square sections of 2.5 cm^2, immersed for a minute in water at a temperature of 60° C. and with the help of specific tweezers, the corneal layer and epidermis (SCE) are accurately separated from the underlying tissues. The samples obtained are analyzed with an optical microscope and discarded if punctures are found. The SCE is assembled in the lower part of a Franz cell with the epidermis facing downwards and the corneal layer in contact with the donor solution which is situated above. The permeation area is a circular surface of 0.636 cm^2. […] Each experiment is effected triply and the result is intended as the average of the 3, expressed as quantity of analyte which has crossed the surface unit of skin after 24 hours. […] The concentration of diclofenac was determined through reverse-phase HPLC analysis on an apparatus Agilent 1200 Series and UV detection (254 nm), C18 column, eluent acetonitrile/water/acetic acid 50/46/4 with a flow of 1.2 ml/min.

[2] = tested on: Herpes Simplex Virus-1 (HSV-1: KOS, F and McIntyre strain); assay: Inhibition of viral cytopathogenicity in E6SM fibroblast cells, HSV-1; type: cell-based; conditions: 2nd day of incubation, numbers only in FIG. 10
IL-12 = assay: Gene expression of IL-12 in human synoviocytes (PCR Real Time); type: cell-based; conditions: 3 days of treatment, FIG. 2: 0.5 mg/ml, vs control treated with non-sulfated HA 200 KD
Experimental: (§1) Human synoviocytes previously expanded in vitro and maintained in a culture at 37° C. with a medium of DMEM containing 10% of FCS, were seeded at a concentration of 20,000 cells per well (synoviocytes are cells capable of producing various types of cytokines, and are therefore normally used for this type of experimental test). […] After 3 days of treatment, the PCR Real Time was effected to evaluate the gene expression of IL-10 and IL-12: the cell RNA was extracted using the “Trizol” method, following the indications of the supplier (TRIZOL reagent, LIFE Technologies, GIBCO BRL). In short, the cells were lysed by the addition of 1.0 ml of Trizol and the total RNA was quantified by measuring its absorbance at 260 nm. The appropriate primers were selected for each gene to be amplified, using the software Primer3 (Roche Molecular Diagnostics, Pleasanton, Calif., USA). The gene expression was evaluated by means of PCR Real Time effected with a Rotor-gene TM5500 (Corbett research, Sydney, Australia). The PCR reactions were effected using primers at […] and SYBR Green (Invitroge, Carlsbad, Calif., USA) at 40 cycles of 15 s at 95° C., and 1 min. at 60° C. The value of “Fluorescence thresholds (Ct)” was automatically determined by the software, evaluating an amplification coefficient for the genes studied between 92 and 110%. […]

IL-10 = assay: Gene expression of IL-10 in human synoviocytes (PCR Real Time); type: cell-based; conditions: 3 days of treatment, FIG. 1: HAS1 0.5 mg/ml, HAS3 0.1 mg/ml, vs control treated with non-sulfated HA 200 KD
Experimental: as §1

IL-2 = assay: Protein synthesis of IL-2 in human PBMC (SearchLight array); conditions: not stimulated or stimulated with LPS or PHA (10 μg/ml), 24 hours, FIG. 6: HAS1 0.1 mg/ml, HAS3 1 mg/ml, vs HA
Experimental: For these experimentations, mononucleate cells of human peripheral blood (PBMC) were adopted, deriving from various donors for evaluating the effect of HAS on the production of the cytokines listed above, using:
The separation of the PBMC (Bøyum A., Scand J Clin Lab Invest 21 Suppl, 1968, 97:77-89) was effected using the product Ficoll-Paque PLUS (GE Healthcare) and following the protocol indicated by the supplier. At day zero 100,000 cells were plated per well (using plates with 96 wells) in 200 μl of medium RPMI 1640, to which 10% of fetal bovine serum, HEPES 10 mM, Glutamine 2 mM, 1% Penicillin-Streptomycin 100 U/ml, had been added. […] The cells were treated separately with the three compounds at a concentration of 0.1 mg/ml or 1 mg/ml. After 24 hours of incubation at 37° C. (5% CO2), 100 μl of supernatant were taken from each well in order to analyze the production of IL-2, IL-7, IL-10 and IL-12.
The quantification of the inflammation mediators was effected by means of the SearchLight® technology, using a Custom Human 9-flex Array plate following the protocol indicated by the supplier in the technical card.

IL-6 receptor = target: T1, IL-6 receptor (Homo sapiens, UniProt P08887); assay: Inhibition of the binding of 125I-IL-6 to its receptor in U266 myeloma cells (Radioligand Binding); conditions: 125I-IL-6 0.08 nM, sample 1 mg/ml, 4° C. 16 hours, both medium and low MW
T1 construct: the line of human myeloma U266 was used, sensitive to the cytotoxic activity of IL-6, expressing its relative receptor; endogenous in cells; host or cells: U266 human myeloma (whole cells)
T1 sequence (P08887 20-468): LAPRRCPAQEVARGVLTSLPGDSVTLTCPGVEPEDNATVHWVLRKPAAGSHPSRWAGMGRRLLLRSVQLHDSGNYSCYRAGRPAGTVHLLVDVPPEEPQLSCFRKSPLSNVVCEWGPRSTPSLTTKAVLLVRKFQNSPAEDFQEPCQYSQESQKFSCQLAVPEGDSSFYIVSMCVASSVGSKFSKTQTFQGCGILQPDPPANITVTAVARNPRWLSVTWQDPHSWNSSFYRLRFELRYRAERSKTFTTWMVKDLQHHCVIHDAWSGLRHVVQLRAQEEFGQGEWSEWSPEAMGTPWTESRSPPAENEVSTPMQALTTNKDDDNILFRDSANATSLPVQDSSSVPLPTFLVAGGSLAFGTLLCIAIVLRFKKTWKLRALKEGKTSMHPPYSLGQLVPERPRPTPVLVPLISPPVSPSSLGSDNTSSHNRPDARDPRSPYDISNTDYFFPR
Source text: These experiments were effected to evaluate the effectiveness of the samples tested (prepared according to Examples 1-3 and 4) on the capacity of inhibiting the binding of IL-6 to its receptor expressed in human myeloma U266, normally used in vitro for this type of experiment, carried out with iodinated cytokine components for an evaluation in Radioligand Binding assays. The experimental procedure was effected as described in Taga T. et al., J Exp Med, 1987, 166:967-981. In short, the line of human myeloma U266 was used, sensitive to the cytotoxic activity of IL-6, expressing its relative receptor. […] At the end of the incubation, the cells were washed with phosphate buffer, centrifuged at 9,000 rpm and the pellet counted in a γ-counter.

## sulfated hyaluronic acid degree 3 [HAS3]
[1]
  total permeate quantity of diclofenac in 24 h: doubling
[2]
  antiviral activity (inhibition of the cytopathogenicity of the virus) vs HSV-1: powerful antiviral action
IL-12
  gene expression of IL-12 (synthesis of its mRNA): halving the synthesis of its mRNA
IL-10
  gene expression of the cytokine IL-10: significant increase
IL-2
  synthesis of IL-2: significantly reducing
IL-6 receptor
  inhibition of the binding of IL-6 to its receptor: 100%
